US20200069592A1, “HSP90 INHIBITOR ORAL FORMULATIONS AND RELATED METHODS” (Samus Therapeutics, Inc., priority 2017, published 2020)
Read-outs that look alike come from different tables or passages of the source.

Assay: Solubility / compatibility testing in drinking solution vehicles and ingredients (Example 7)
Assay type: physicochemical
Text: This Example examined drinking solution vehicles for Compound 1 2HCl. Initially Orasweet® Sugar Free options were explored as a vehicle for Compound 1 2HCl.
ORA-Sweet®, commerically available from Perrigo, comprises purified water, sucrose, glycerine, sorbitol, and flavouring. ORA-Sweet® is buffered with citric acid and sodium phosphate and preserved with methylparaben and potassium sorbate.
ORA-Sweet® Sugar Free, commerically available from Perrigo, comprises purified water, glycerine, sorbitol, sodium saccharin, xanthan gum, and flavouring. It is buffered with citric acid and sodium citrate and preserved with methylparaben (0.03%), potassium sorbate (0.1%), and propylparaben (0.008%).
SyrSpend® SF Cherry, commercially available from Fargon, comprises purified water, modified food starch, sodium citrate, citric acid, sucralose, sodium benzoate (<0.1% preservative), sorbic acid, malic acid and simethicone.
SyrSpend® SF Alka, commercially available from Fargon, comprises modified starch, calcium carbonate and sucralose.
(§1) ORA-Blend®, commerically available from Perrigo, comprises purified water, sucrose, glycerin, sorbitol, flavoring, microcrystalline cellulose, carboxymethylcellulose sodium, xanthan gum, carrageenan, calcium sulfate, trisodium phosphate, citric acid and sodium phosphate as buffers, dimethicone antifoam emulsion and preserved with methylparaben and potassium sorbate.
as §1, with “ORA-Plus®,” for “ORA-Blend®,”, “water,” for “water, sucrose, glycerin, sorbitol, flavoring,”

CC(C)NCCCn1c(Sc2cc3c(cc2I)OCO3)nc2c(N)ncnc21 [Compound 1 2HCl]
solubility (50% Flavor Sweet SF in water, aqueous with cosolvent or surfactant or cyclodextrin, API in 50% Flavor Sweet SF/H2O, read-out: Solubility testing result: Precipitate at): < 5000 µg/mL
solubility (50% Versa Free in water, aqueous with cosolvent or surfactant or cyclodextrin, API in 50% Versa Free/H2O, read-out: Solubility testing result: Precipitate at): < 5000 µg/mL
solubility (Flavor Sweet (sugar free) vehicle, aqueous with cosolvent or surfactant or cyclodextrin, API in Flavor Sweet (sugar free), read-out: Solubility testing result: Precipitate at): < 5000 µg/mL
Compatibility with drinking solution vehicle (Orasweet Sugar Free formulations (contain xanthan gum)): incompatibility
solubility (Versa Free vehicle, aqueous with cosolvent or surfactant or cyclodextrin, API in Versa Free, read-out: Solubility testing result: Precipitate at): < 5000 µg/mL
solubility (glycerin in 50% water, aqueous with cosolvent or surfactant or cyclodextrin, read-out: Ingredient solubility testing): > 10000 µg/mL
solubility (glycerin, organic solvent or mixture, read-out: Ingredient solubility testing): > 6000 µg/mL
